One block for each compound: values may come before it.
Experiments:
Activated CDC42 kinase 1 = Activated CDC42 kinase 1 (Homo sapiens, UniProt Q07912); assay: Selectivity interaction (KinaseProfiler screening (Millipore)) EUB0000601a TNK2; details: at 3 µM
[1] = molecular target: T1, Mitogen-activated protein kinase 13 (Homo sapiens) (UniProt O15264); assay: Selectivity interaction (Kinase panel (literature)) EUB0001199aCl MAPK13; details: at 1 µM
T1 sequence (whole entry): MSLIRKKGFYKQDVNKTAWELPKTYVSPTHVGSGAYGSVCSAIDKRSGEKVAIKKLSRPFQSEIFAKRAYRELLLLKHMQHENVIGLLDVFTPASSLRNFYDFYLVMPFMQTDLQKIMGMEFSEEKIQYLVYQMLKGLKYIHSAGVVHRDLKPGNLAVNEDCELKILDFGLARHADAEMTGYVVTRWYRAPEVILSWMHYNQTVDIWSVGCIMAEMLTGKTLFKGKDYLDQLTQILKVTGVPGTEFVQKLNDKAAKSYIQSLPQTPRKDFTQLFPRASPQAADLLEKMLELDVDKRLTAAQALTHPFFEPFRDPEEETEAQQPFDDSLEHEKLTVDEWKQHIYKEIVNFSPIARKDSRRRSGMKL

[2] = molecular target: T2, Serine/threonine-protein kinase Nek2 (Homo sapiens) (UniProt P51955); assay: Selectivity interaction (Kinase panel (literature)) EUB0001199aCl NEK2; details: at 1 µM
T2 sequence (whole entry): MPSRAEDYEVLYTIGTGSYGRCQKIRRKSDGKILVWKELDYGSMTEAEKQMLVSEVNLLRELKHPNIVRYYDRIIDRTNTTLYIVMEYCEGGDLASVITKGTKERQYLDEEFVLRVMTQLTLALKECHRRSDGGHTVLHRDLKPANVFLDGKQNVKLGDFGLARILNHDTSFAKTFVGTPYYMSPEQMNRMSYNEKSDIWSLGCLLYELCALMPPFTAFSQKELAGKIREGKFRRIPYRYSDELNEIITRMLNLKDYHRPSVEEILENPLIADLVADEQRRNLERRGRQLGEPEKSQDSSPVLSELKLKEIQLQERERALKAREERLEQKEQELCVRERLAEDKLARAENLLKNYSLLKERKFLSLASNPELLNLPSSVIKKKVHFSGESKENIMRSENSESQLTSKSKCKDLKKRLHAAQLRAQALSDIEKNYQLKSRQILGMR

[3] = molecular target: Non-receptor tyrosine-protein kinase TYK2 (Homo sapiens, UniProt P29597); assay: Selectivity interaction (KinomeScan (DiscoverX)) EUB0000618a TYK2; details: at 10 µM
[4] = molecular target: Cyclin-dependent kinase 5 (Homo sapiens, UniProt Q00535); details: at 10 µM
Sequence of Cyclin-dependent kinase 5 (Q00535 whole entry, looked up): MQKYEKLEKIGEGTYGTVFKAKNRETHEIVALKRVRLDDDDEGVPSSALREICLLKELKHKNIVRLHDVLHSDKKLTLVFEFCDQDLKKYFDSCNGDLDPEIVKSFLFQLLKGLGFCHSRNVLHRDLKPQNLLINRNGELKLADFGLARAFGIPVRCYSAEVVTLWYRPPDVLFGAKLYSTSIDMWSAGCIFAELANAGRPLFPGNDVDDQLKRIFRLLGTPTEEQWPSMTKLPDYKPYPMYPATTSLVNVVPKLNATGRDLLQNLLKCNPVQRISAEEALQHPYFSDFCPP

[5] = molecular target: Mitogen-activated protein kinase kinase kinase 4 (Homo sapiens) (UniProt Q9Y6R4); assay: Selectivity interaction (ActivX KiNativ screen (kinase selectivity in THP-1 cell lysates)) EUB0000639a MAP3K4; format: subcellular; details: lysate
Sequence of Mitogen-activated protein kinase kinase kinase 4 (Homo sapiens) (Q9Y6R4 whole entry): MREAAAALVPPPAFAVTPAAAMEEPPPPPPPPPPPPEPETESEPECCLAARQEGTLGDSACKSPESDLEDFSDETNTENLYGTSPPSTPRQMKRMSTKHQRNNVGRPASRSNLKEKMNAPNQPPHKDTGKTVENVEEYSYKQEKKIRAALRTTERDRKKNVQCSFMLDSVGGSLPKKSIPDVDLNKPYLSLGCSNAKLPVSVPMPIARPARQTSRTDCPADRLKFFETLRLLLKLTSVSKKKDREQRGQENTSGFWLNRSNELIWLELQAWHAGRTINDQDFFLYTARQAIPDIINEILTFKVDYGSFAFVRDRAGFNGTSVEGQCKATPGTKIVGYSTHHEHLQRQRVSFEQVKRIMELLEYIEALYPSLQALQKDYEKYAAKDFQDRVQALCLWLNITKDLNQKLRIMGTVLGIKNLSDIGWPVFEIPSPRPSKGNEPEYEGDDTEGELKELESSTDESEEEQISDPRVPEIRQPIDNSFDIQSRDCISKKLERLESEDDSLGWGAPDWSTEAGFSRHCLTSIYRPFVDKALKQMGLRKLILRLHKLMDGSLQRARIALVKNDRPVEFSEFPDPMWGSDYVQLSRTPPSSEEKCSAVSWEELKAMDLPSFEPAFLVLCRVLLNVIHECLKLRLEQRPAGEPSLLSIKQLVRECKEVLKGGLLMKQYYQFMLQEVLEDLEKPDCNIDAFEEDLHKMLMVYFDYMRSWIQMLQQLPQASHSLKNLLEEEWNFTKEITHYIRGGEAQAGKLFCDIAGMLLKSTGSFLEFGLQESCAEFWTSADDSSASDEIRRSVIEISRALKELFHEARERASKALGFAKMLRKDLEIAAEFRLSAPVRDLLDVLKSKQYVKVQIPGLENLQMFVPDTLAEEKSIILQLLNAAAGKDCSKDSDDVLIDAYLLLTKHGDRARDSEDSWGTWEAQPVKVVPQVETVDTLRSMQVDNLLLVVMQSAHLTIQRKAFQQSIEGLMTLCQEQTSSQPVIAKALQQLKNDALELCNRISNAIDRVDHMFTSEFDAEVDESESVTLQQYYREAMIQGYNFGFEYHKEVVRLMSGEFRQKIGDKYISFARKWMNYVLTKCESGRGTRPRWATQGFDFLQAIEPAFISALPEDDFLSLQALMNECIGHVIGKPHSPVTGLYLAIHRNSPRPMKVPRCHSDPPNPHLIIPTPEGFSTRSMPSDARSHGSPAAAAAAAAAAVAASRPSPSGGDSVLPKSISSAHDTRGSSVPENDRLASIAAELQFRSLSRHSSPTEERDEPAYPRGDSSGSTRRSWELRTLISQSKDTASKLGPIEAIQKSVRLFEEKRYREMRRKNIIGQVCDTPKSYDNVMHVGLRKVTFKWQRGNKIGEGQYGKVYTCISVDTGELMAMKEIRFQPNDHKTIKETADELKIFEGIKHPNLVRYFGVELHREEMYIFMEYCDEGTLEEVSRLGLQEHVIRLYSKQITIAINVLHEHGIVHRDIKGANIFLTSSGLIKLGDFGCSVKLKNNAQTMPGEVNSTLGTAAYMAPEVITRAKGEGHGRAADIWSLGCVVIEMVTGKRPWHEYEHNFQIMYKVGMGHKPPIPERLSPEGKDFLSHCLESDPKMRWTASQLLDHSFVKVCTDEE

Ephrin type-A receptor 4 = Ephrin type-A receptor 4 (Homo sapiens, UniProt P54764); assay: Selectivity interaction (Kinase panel (Invitrogen)) EUB0000639a EPHA4; details: at 200 nM
Sequence of Ephrin type-A receptor 4 (P54764 whole entry): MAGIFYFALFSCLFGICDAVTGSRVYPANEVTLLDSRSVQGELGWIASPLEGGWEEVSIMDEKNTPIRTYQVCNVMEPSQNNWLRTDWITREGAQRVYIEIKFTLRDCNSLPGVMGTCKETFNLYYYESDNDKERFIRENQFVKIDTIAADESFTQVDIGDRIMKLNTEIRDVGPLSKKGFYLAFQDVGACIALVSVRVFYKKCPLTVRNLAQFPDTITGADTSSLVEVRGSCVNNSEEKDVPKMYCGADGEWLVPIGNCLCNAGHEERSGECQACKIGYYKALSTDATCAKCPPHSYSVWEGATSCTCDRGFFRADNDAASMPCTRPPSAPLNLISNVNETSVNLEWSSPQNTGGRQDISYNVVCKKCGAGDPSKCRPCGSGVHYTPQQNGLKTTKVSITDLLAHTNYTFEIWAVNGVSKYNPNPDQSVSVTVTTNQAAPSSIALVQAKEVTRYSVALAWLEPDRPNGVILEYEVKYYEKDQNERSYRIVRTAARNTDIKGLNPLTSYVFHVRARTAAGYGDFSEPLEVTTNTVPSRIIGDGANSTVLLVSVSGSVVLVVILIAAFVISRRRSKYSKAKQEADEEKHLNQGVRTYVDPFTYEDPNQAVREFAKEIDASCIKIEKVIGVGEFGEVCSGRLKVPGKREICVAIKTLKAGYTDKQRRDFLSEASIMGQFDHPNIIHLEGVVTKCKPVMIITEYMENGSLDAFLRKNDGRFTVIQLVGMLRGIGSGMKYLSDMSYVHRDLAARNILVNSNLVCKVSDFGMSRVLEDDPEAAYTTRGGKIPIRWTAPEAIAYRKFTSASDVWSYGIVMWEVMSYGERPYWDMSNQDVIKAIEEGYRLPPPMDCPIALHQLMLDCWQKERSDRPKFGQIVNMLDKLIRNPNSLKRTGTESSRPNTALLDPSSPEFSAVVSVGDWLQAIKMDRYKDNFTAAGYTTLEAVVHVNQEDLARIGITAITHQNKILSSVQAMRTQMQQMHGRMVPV

[6] = tested on: Epidermal growth factor receptor (Homo sapiens), P00533 [L858R]; assay: (§1) Selectivity interaction (KinomeScan (DiscoverX)) EUB0001049a EGFR; details: at 1 µM
[7] = molecular target: Epidermal growth factor receptor (Homo sapiens, UniProt P00533); assay: as §1; details: at 1 µM
[8] = tested on: Epidermal growth factor receptor (Homo sapiens), P00533 [L858R,T790M]; assay: as §1; details: at 1 µM
[9] = tested on: Epidermal growth factor receptor (Homo sapiens), P00533 [UNDEFINED MUTATION]; assay: as §1; details: at 1 µM
[10] = tested on: Epidermal growth factor receptor (Homo sapiens), P00533 [L861Q]; assay: as §1; details: at 1 µM
Sequence of Epidermal growth factor receptor (Homo sapiens), P00533 [L861Q] (P00533 whole entry L861Q): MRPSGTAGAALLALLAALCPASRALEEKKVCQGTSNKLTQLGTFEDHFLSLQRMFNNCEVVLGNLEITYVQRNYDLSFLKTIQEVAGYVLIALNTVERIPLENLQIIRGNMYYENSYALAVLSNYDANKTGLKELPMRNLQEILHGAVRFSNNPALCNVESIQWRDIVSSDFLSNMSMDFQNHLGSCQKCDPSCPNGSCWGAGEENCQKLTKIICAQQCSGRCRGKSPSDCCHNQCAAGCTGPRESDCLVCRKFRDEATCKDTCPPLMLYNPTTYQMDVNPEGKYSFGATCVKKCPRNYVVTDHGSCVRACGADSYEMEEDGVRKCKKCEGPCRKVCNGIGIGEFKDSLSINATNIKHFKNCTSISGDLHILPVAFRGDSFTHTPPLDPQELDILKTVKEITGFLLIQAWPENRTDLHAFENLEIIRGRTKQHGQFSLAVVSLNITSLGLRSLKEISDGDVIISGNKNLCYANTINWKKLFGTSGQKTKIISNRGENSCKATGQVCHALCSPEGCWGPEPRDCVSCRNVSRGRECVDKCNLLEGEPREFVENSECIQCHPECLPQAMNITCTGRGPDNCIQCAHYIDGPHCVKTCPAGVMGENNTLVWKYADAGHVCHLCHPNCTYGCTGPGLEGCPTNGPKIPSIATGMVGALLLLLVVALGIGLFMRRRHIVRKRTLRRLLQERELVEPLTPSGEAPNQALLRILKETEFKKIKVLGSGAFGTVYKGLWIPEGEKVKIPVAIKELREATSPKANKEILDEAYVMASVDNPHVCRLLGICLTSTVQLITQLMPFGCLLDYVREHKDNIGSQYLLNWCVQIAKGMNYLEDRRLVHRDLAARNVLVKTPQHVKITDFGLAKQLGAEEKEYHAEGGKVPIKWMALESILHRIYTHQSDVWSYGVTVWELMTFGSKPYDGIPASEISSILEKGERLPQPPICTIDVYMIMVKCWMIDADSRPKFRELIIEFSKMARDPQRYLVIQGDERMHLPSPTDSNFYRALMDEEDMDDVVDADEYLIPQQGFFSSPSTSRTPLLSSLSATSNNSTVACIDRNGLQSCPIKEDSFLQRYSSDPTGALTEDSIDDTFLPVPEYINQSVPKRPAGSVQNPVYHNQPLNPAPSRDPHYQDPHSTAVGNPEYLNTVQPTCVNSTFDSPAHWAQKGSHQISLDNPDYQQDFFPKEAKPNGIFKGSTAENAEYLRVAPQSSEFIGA

[11] = molecular target: T3, Ephrin type-B receptor 1 (Homo sapiens) (UniProt P54762); assay: Selectivity interaction (KinomeScan (DiscoverX)) EUB0000092b EPHB1; details: at 10 µM
T3 sequence (whole entry): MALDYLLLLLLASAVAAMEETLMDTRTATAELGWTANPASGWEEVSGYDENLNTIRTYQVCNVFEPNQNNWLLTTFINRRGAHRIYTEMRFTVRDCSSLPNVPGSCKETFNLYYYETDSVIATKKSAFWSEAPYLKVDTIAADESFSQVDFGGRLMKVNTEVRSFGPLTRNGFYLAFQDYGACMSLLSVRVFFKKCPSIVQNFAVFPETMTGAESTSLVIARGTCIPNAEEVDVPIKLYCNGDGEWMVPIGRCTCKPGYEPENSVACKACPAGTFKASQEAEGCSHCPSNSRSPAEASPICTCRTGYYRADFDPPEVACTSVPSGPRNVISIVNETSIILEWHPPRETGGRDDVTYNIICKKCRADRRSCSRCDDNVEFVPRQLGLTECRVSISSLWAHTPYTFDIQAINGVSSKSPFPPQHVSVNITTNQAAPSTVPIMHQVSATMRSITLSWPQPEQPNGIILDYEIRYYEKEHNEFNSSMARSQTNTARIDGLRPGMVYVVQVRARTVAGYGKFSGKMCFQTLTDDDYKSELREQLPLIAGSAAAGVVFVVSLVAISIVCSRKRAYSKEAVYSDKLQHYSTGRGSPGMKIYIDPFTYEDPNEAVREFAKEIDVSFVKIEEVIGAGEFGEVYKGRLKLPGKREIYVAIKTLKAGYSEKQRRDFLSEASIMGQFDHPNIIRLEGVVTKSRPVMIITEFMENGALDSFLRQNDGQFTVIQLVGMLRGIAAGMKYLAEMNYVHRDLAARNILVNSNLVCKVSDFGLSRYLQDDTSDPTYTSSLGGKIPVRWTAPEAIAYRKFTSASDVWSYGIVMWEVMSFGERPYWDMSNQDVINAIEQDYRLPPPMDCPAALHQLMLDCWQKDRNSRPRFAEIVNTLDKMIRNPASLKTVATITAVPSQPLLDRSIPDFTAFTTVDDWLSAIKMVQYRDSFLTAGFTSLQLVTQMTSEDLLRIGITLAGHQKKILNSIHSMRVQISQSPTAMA

[12] = molecular target: 5'-AMP-activated protein kinase catalytic subunit alpha-2 (Homo sapiens) (UniProt P54646); assay: Selectivity interaction (KinomeScan (DiscoverX)) EUB0000311b PRKAA2; details: at 1 µM
Sequence of 5'-AMP-activated protein kinase catalytic subunit alpha-2 (Homo sapiens) (P54646 whole entry, looked up): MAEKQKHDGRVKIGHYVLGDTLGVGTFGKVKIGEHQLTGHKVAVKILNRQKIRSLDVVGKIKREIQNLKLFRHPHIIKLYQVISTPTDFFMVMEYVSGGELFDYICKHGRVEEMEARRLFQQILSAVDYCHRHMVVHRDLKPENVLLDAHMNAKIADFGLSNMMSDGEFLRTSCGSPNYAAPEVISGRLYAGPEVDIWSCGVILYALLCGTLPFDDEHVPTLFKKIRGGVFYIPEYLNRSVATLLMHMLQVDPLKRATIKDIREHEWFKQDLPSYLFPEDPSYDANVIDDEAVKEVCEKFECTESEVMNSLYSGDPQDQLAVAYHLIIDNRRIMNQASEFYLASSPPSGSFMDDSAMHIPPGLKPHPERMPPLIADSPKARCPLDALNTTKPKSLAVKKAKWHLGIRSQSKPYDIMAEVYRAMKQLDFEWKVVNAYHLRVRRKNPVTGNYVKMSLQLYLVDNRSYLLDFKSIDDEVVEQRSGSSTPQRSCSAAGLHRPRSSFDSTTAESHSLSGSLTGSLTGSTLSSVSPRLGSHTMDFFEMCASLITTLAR

[13] = molecular target: T4, Testis-specific serine/threonine-protein kinase 3 (Homo sapiens) (UniProt Q96PN8); assay: Selectivity interaction (Kinase panel (Z-LYTE Assay)) EUB0001632a TSSK3; details: at 10 µM
T4 sequence (whole entry): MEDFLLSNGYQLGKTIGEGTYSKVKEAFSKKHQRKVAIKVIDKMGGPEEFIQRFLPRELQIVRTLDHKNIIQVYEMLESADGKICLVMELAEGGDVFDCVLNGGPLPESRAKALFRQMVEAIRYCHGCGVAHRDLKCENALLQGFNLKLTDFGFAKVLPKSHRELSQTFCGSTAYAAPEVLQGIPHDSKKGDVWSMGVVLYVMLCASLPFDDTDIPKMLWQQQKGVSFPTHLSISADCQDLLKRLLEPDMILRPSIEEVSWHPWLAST

% of inhibition (Activated CDC42 kinase 1): 34%
SMILES: CCc1cc(Nc2nccc(-c3c(-c4ccc(OC)c(C(=O)Nc5c(F)cccc5F)c4)nc4ccccn34)n2)c(OC)cc1N1CCC(N2CCN(S(C)(=O)=O)CC2)CC1

% of inhibition [1]: 10%
% of inhibition [2]: 4%
SMILES: CN1Cc2nccc(-c3cn(C)nc3-c3ccc(F)cc3)c2C1=O

% of inhibition ([5]; at 0.01 µM): 18.5%
% of inhibition ([5]; at 0.04 µM): -5.7%
% of inhibition ([5]; at 0.2 µM): -1.4%
% of inhibition ([5]; at 1 µM): -23%
% of inhibition ([5]; at 5 µM): 6.4%
% of inhibition (Ephrin type-A receptor 4): 6.54%
SMILES: CC[C@@H]1[C@H](F)C(=O)N[C@@H]1COc1nccc2cc(C(N)=O)c(OC)cc12 [ZIMLOVISERTIB]

% of control [13]: 4.44%
SMILES: Cn1cc(-n2cnc3c(NCc4nc5cc(Cl)c(Cl)cc5[nH]4)nc(N4CCOCC4)nc32)cn1

Continued, compound first:

SMILES: O[C@H]1CC[C@H](Nc2ncc3nc(Nc4c(F)cc(F)cc4F)n([C@H]4CCOC4)c3n2)CC1
% of control [3]: 61%

SMILES: Cc1cc([C@@H](C)Nc2ccccc2C(=O)O)c2nc(N3CCOCC3)cc(=O)n2c1 [AZD-6482]
% of control [4]: 100%

SMILES: COc1cc(Nc2nc(C)cc(-c3cnn4nc(OC)ccc34)n2)cc(C(F)(F)F)c1
% of control [6]: 89%
% of control [7]: 95%
% of control [8]: 68%
% of control [9]: 100%
% of control [10]: 100%

SMILES: CCC(=O)N1CCN(c2ccc(-n3c(=O)ccc4cnc5ccc(-c6cnc7ccccc7c6)cc5c43)cc2C(F)(F)F)CC1
% of control [11]: 100%

SMILES: CCc1ccccc1C(=O)Nc1n[nH]c2c(C)c(F)c(C3C(C#N)=C(C)N(C)C(C)=C3C#N)cc12 [BAY-3827]
% of control [12]: 0%

Reference: ChEMBL document CHEMBL5465560, “Selectivity Literature for EUbOPEN Chemogenomic Library” (2024)
